Test results published in patent US20060166956A1, “Use of anecortave acetate for the protection of visual acuity in patients with age related macular degeneration” (priority 2002, published 2006).

How the values were obtained:
[1] = tested on: patients with exudative AMD; assay: Clinical trial: clinical safety evaluation (Independent Safety Committee); type: in vivo
Text: (§1) Clinical efficacy data is being obtained from evaluations of best-corrected log MAR visual acuity and standardized fluorescein angiograms. Clinical safety data obtained from general physical examinations, laboratory evaluations of blood and urine, and complete ophthalmic examinations, including indocyanine green angiography, continue to be periodically evaluated by the Independent Safety Committee overseeing this study. Clinical data from evaluations for safety and efficacy performed at Day 1-2, Week 2, Week 6, Month 3, and Month 6 following patient randomization and treatment are reported here.
Following completion of the Month 6 visit by all patients, the accumulated safety data were evaluated by the Independent Safety Committee overseeing this study. […] The most common ocular changes reported were changes in lens opacity using the Lens Opacity Classification System (LOCS) II, and included reports of nuclear color, nuclear opalescence, cortical, and posterior subcapsular changes. Cataracts are a common intercurrent disorder in this patient population, and the changes seen were documented in all treatment groups and in contralateral (untreated) eyes. The cataractous changes reported were described as mild and typically unrelated to treatment. The second most common ocular change, a decrease in vision (defined as a decrease of ≧4 log MAR lines from the previous visit), is also a common problem in this patient population. These vision decreases occurred in all treatment groups and in the contralateral eye. Other ocular changes (occurring with a frequency greater than 5%) were ptosis, ocular pain, subconjunctival hemorrhage, ocular pruritis, ocular burning/stinging, pupil disorders, foreign body sensation, ocular hyperemia, and abnormal vision. These changes were reported in all four treatment groups, in both treated eyes and contralateral eyes, were characterized as primarily mild, were generally not attributed to treatment, and were transient in nature. The single report of an IOP increase (≧10 mmHg) from Baseline occurred in a patient treated with anecortave acetate 30 mg and was attributed to intercurrent illness. Of the ocular changes reported, those most frequently attributed to study treatment were ptosis, ocular pain, subconjunctival hemorrhage, ocular pruritis, and ocular burning/stinging. These treatment-related events were mostly mild, transient, and seen within all four treatment groups.

[2] = tested on: patients with subfoveal choroidal neovascularization (CNV) secondary to AMD; assay: Clinical trial: best-corrected log MAR visual acuity after single posterior juxtascleral administration; type: in vivo
Text: (§2) This ongoing trial was initiated to compare the clinical efficacy of anecortave acetate versus placebo treatment for preservation (maintenance) of vision and inhibition of CNV lesion growth. Patients with a log MAR visual acuity of 0.3 (20/40 Snellen equivalent) to 1.2 (20/320 Snellen equivalent) and primary or recurrent subfoveal choroidal neovascularization (CNV) secondary to AMD with a lesion up to 30.48 mm^2 (12 disc areas) in size were enrolled. At Baseline and follow-up visits, best-corrected log MAR visual acuity was obtained on all patients using guidelines previously established for the Early Treatment Diabetic Retinopathy Study. Patient lesion eligibility for this study was determined from standardized fluorescein angiograms at the Digital Angiography Reading Center (DARC) by certified Readers (trained retina specialists) prior to enrollment and treatment. The DARC also evaluated changes from Baseline in the fluorescein angiographic characteristics of the lesions in masked fashion. Each data point represents the average of at least two independent evaluations by DARC Readers. Because all angiographic data for this study is being collected using the same fundus camera and digital camera systems and stored as uncompressed digital images, the actual lesion surface areas can be more closely approximated in mm^2 rather than requiring the disc area “best-fit” estimates previously used for film angiographic data.
The 128 patients in this double-masked, dose-response study were enrolled and treated between April 1999 and May 2001 by 18 participating sites in the US and EU. Prior to treatment, patients were enrolled and equally randomized to anecortave acetate sterile suspension for injection 30 mg (N=33), 15 mg (N=33), or 3 mg (N=32) or to placebo (vehicle, N=30). Masking of the clinical sites as to treatment group is being maintained in two ways. Study medication is masked by placing the treatment kits including study medication and supplies for the posterior juxtascleral administration in sealed opaque boxes identified by patient number only. The boxes were numbered sequentially at each clinical site and patients were assigned the next available sequential number upon enrollment. The randomization was built into the sequential numbering of the treatment kits and blocked within each site to maintain equal distribution across treatment assignments. Masking as to treatment group is also being maintained at each site by having an unmasked injecting investigator perform the treatments and a masked examining investigator perform the subsequent evaluations. Upon enrollment of each patient, anecortave acetate or placebo was administered behind the eye as a 0.5 mL posterior juxtascleral injection onto the outer surface of the sclera near the macula using a specially designed cannula. The cannula is described in commonly owned U.S. Pat. No. 6,413,245B 1.
as §1, with “here. […]” for “here.”

[3] = tested on: subfoveal CNV lesion secondary to AMD; assay: Clinical trial: CNV lesion surface area change by standardized fluorescein angiograms (DARC); type: in vivo, patients; conditions: for inhibition of lesion growth, comparison with placebo: Month 6
Text: as §2
The primary efficacy outcome for this ongoing study is the mean change from Baseline in best-corrected log MAR visual acuity. Secondary efficacy outcomes are: the percentage of patients with preservation or maintenance of vision (defined as loss of less than three log MAR lines [less than 15 log MAR letters] of visual acuity); the percentage of patients with clinically significant worsening of vision (defined as a loss of at least three log MAR lines [at least 15 log MAR letters] of visual acuity); the percentage of patients with severe vision loss (defined as a loss of at least six log MAR lines [at least 30 log MAR letters] of visual acuity); and changes in CNV lesion characteristics (defined as total lesion area, total CNV and total classic CNV).
All efficacy analyses were based on the intent-to-treat principle. All patients received the medication to which they were assigned, and were analyzed accordingly. Last-observation-carry-forward was used to impute missing values. Baseline comparisons were tested using analysis of variance (for continuous outcomes) and Pearson's chi square (for binary outcomes). Changes from baseline in visual acuity and lesion parameters were tested in a repeated measures analysis of variance model with appropriate contrasts for the 6-month comparisons. Comparisons of binary outcomes at Month 6 were evaluated using Pearson's chi-square tests. All analyses of ocular outcomes are based on changes in the study (i.e., treated) eye.
Total lesion areas, total CNV areas, and total classic CNV areas were measured and compared among treatment groups.

CC(=O)OCC(=O)[C@@]1(O)CC[C@H]2[C@@H]3CCC4=CC(=O)CC[C@]4(C)C3=CC[C@@]21C [anecortave acetate, 4,9(11)-pregnadien-17α,21-diol-3,20 dione-21 acetate]
reports of IOP increase (≧10 mmHg) from Baseline ([1]; 30 mg): single report | changes in blood chemistry, hematology, or urinalysis ([1]; all doses): No treatment-related changes | safety concerns identified by the Independent Safety Committee ([1]; all doses, after Month 6 visit): no clinically relevant medication-related or administration-related safety concerns were identified | ocular corticosteroid side effects (elevated intraocular pressure, accelerated cataract progression) ([1]; clinical study, at least 6 months exposure): no clinical evidence | mean change at Month 6 from Baseline in log MAR visual acuity, comparison with placebo ([2]; 3 mg): Trends also favor treatment | percentage of patients with preservation of vision (decrease of less than three log MAR lines) ([2]; 15 mg, Month 6, all patients): 88% | percentage of patients with preservation of vision (decrease of less than three log MAR lines) ([2]; 15 mg, Month 6, subgroup with predominantly classic CNV lesion, p=0.0209 vs placebo): 92% | mean change at Month 6 from Baseline in log MAR visual acuity, comparison with placebo ([2]; 15 mg, p=0.0032): statistically superior to placebo treatment | mean change at Month 6 from Baseline in log MAR visual acuity, comparison with placebo ([2]; 30 mg): Trends also favor treatment | inhibition of lesion growth, comparison with placebo ([3]; 3 mg): trend favoring | inhibition of total CNV surface area (percent change from Baseline), comparison with placebo ([3]; 15 mg, Month 6, p=0.0001): statistically superior to placebo treatment | inhibition of total lesion surface area (percent change from Baseline), comparison with placebo ([3]; 15 mg, Month 6, p=0.0005): statistically superior to placebo treatment | inhibition of total classic CNV surface area (percent change from Baseline), comparison with placebo ([3]; 15 mg, Month 6, p=0.0008): statistically superior to placebo treatment | inhibition of lesion growth, comparison with placebo ([3]; 30 mg): trend favoring
